Measured values taken from patent US20200087709A1, “DIRECT-TO-CONSUMER GENOMIC DIAGNOSTIC DEVICE” (MicroInvestigate, LLC, priority 2018, published 2020).
Entries after “also recorded” stand apart in the source; their conditions may differ.

Tests used:
Test in all cases: Antibiotic testing by broth microdilution
Format in all cases: cell-based
[1] = tested on: Streptococcus agalactiae SGBS025; settings: for resistance or susceptibility by broth dilution: S. agalactiae (ermB positive and mef(A) negative); for MIC: Streptococcus agalactiae, SGBS025, 20 h, S. agalactiae SGBS025, known ermB+, mef(A)−, BHI, 37° C., 20 hour incubation
Experimental: (§1) All bacteria were tested for their antimicrobial susceptibility by broth microdilution. Ampicillin (Cat #97061-442) was obtained from VWR (Amresco) and Erythromycin (Cat # TCE0751-5G) was obtained from VWR (TCI). Bacteria were maintained on blood agar plates at 37° C., and single colonies selected for inoculation into liquid overnight cultures in sterile Brain-Heart Infusion (BHI, VWR Cat #90003-038). For each culture, 5 mL of BHI media was inoculated in a sealed 15 ml falcon tube for overnight incubation at 37° C. (no shaking). Gentle inversion was used to mix the cultures prior to setting up the assay.
(§2) For the experiment, 5 μl of overnight culture was mixed with 5 mL of BMI media (1000× dilution) in a sterile tray and gently mixed. This dilute culture was added at […] per well of a 96-well plate pre-loaded with 20 μl of antibiotic solutions ranging, for erythromycin, from 0.5 to 32 μg/ml (10×) to produce the desired final concentrations of 0.05-3.2 μg/ml. For ampicillin, the stocks were 1.25 μg/ml-80 μg/ml resulting in final concentrations of 0.125 μg/ml-8 μg/ml. The 96-well plate was then transferred to a FilterMax F5 microplate reader for a 20 hour incubation at a temperature of 37° C., with readings taken every 30 minutes. A10-second orbital shaking was performed prior to each reading.

[2] = tested on: Streptococcus pyogenes MGAS10394; settings: for resistance or susceptibility by broth dilution: S. pyogenes MGAS10394 (mef(A) positive); for MIC: Streptococcus pyogenes, MGAS10394, 20 h, S. pyogenes MGAS10394, known mef(A)+, BHI, 37° C., 20 hour incubation
Experimental: as §1, §2

[3] = tested on: Streptococcus pyogenes MGAS6180; settings: for resistance or susceptibility by broth dilution: S. pyogenes MGAS6180 (mef(A) negative); for MIC: Streptococcus pyogenes, S. pyogenes MGAS6180, known mef(A)−, BHI, 37° C., 20 hour incubation
Experimental: as §1, §2

[4] = tested on: Streptococcus salivarius patient isolate; settings: for resistance or susceptibility by broth dilution: S. salivarius (mef(A) positive); for MIC: Streptococcus salivarius, 20 h, S. salivarius patient isolate, discovered mef(A)+, BHI, 37° C., 20 hour incubation
Experimental: as §1, §2

Row | MIC [1] | MIC [2] | MIC [3] | MIC [4] | SMILES | resistance or susceptibility by broth dilution [1] | resistance or susceptibility by broth dilution [2] | resistance or susceptibility by broth dilution [3] | resistance or susceptibility by broth dilution [4]
1 | < 0.125 µg/mL | < 0.125 µg/mL | < 0.125 µg/mL | < 0.125 µg/mL | CC1(C)S[C@@H]2[C@H](NC(=O)[C@H](N)c3ccccc3)C(=O)N2[C@H]1C(=O)O [ampicillin, Ampicillin] | susceptible | susceptible | susceptible | susceptible
2 | ≥ 3.2 µg/mL | ≥ 3.2 µg/mL | < 0.05 µg/mL | ≥ 3.2 µg/mL | CC[C@H]1OC(=O)[C@H](C)[C@@H](O[C@H]2C[C@@](C)(OC)[C@@H](O)[C@H](C)O2)[C@H](C)[C@@H](O[C@@H]2O[C@H](C)C[C@H](N(C)C)[C@H]2O)[C@](C)(O)C[C@@H](C)C(=O)[C@H](C)[C@@H](O)[C@]1(C)O [erythromycin, Erythromycin] | robust resistance; also recorded: resistant | resistant | susceptible | resistant
